Reference: patent US6479435B1, “Diaryl ethers and processes for their preparation and herbicidal and desiccant compositions containing them” (ISK Americas Incorporated, priority 1997, dated 2002)

Tests used:
Format in all cases: in vivo
[1] = tested on: Johnsongrass (Sorghum halepense, SORHA); assay: Post-emerge greenhouse herbicide test, phytotoxicity rating; conditions: 14 days after application
How it was run: (§1)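 Compounds in acetone with 0.25% v/v non-ionic surfactant were track-sprayed at 187 l/ha over plants at the 2-3 leaf stage, at 63 to 1000 g ai/ha. Pots were bottom-watered. Injury was scored visually 14 days later on a 0-100 scale, where 0 is no damage and 100 is complete plant death.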

[2] = tested on: redroot pigweed (Amaranthus retroflexus, AMARE); assay: as above; conditions: 14 days after application
How it was run: as §1

[3] = tested on: large crabgrass (Digitaria sanguinalis, DIGSA); assay: as above; conditions: 14 days after application
How it was run: as §1

[4] = tested on: sicklepod (Cassia obtusifolia, CASOB); assay: as above; conditions: 14 days after application
How it was run: as §1

[5] = tested on: velvetleaf (Abutilon theophrasti, ABUTH); assay: as above; conditions: 14 days after application
How it was run: as §1

[6] = tested on: green foxtail (Setaria viridis, SETVI); assay: as above; conditions: 14 days after application
How it was run: as §1

[7] = tested on: lambsquarters (Chenopodium album, CHEAL); assay: as above; conditions: 14 days after application
How it was run: as §1

[8] = tested on: barnyardgrass (Echinochloa crusgalli, ECHCG); assay: as above; conditions: 14 days after application
How it was run: as §1

[9] = tested on: ivyleaf morningglory (Ipomoea hederacea, IPOHE); assay: as above; conditions: 14 days after application
How it was run: as §1

[10] = tested on: Johnsongrass (Sorghum halepense, SORHA); assay: Pre-emerge greenhouse herbicide test, phytotoxicity rating; conditions: 14 days after application, rating scale 0-100
How it was run: (§2)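 Seeds sown in sandy loam mix one day before track-sprayer application of compounds in acetone at 125–1000 g ai/ha (187 l/ha), then surface-watered to incorporate and bottom-watered. Visual rating 14 days after application on a 0–100 scale (0 = no damage, 100 = all plants dead).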

[11] = tested on: redroot pigweed (Amaranthus retroflexus, AMARE); assay: as above; conditions: 14 days after application, rating scale 0-100
How it was run: as §2

[12] = tested on: common ragweed (Ambrosia artemisiifolia L., AMBEL); assay: as above; conditions: 14 days after application, rating scale 0-100
How it was run: as §2

[13] = tested on: large crabgrass (Digitaria sanguinalis, DIGSA); assay: as above; conditions: 14 days after application, rating scale 0-100
How it was run: as §2

[14] = tested on: sicklepod (Cassia obtusifolia, CASOB); assay: as above; conditions: 14 days after application, rating scale 0-100
How it was run: as §2

[15] = tested on: velvetleaf (Abutilon theophrasti, ABUTH); assay: as above; conditions: 14 days after application, rating scale 0-100
How it was run: as §2

[16] = tested on: green foxtail (Setaria viridis, SETVI); assay: as above; conditions: 14 days after application, rating scale 0-100
How it was run: as §2

[17] = tested on: lambsquarters (Chenopodium album, CHEAL); assay: as above; conditions: 14 days after application, rating scale 0-100
How it was run: as §2

[18] = tested on: barnyardgrass (Echinochloa crusgalli, ECHCG); assay: as above; conditions: 14 days after application, rating scale 0-100
How it was run: as §2

[19] = tested on: ivyleaf morningglory (Ipomoea hederacea, IPOHE); assay: as above; conditions: 14 days after application, rating scale 0-100
How it was run: as §2

[20] = tested on: field corn (Zea mays L., var. Dekalb 535, CORN); assay: Post-emerge greenhouse test, crop damage rating; conditions: 14 days after application
How it was run: as §1

[21] = tested on: upland rice (Oryza sp., var.Tebonnet, RICE); assay: Post-emerge greenhouse test, crop damage rating; conditions: 14 days after application
How it was run: as §1

[22] = tested on: field corn (Zea mays L., var. Dekalb 535, CORN); assay: Pre-emerge greenhouse test, crop damage rating; conditions: 14 days after application, rating scale 0-100
How it was run: as §2

[23] = tested on: upland rice (Oryza sp., var.Tebonnet, RICE); assay: Pre-emerge greenhouse test, crop damage rating; conditions: 14 days after application, rating scale 0-100
How it was run: as §2

[24] = tested on: common ragweed (Ambrosia artemisiifolia L., AMBEL); assay: Post-emerge greenhouse herbicide test, phytotoxicity rating; conditions: 14 days after application
How it was run: as §1

[25] = tested on: soybean (Glycine max L., var. Pella 86, SOY); assay: Pre-emerge greenhouse test, crop damage rating; conditions: 14 days after application, rating scale 0-100
How it was run: as §2

[26] = tested on: soybean (Glycine max L., var. Pella 86, SOY); assay: Post-emerge greenhouse test, crop damage rating; conditions: 14 days after application
How it was run: as §1

Cn1c(C(F)(F)F)nc(-c2cc(Oc3ncccc3C(F)(F)F)c(Cl)cc2F)c1Cl [Compound 2-2]
SORHA phytotoxicity rating (0-100) ([1]; 500 g al/ha): 40 | AMARE phytotoxicity rating (0-100) ([2]; 500 g al/ha): 95 | DIGSA phytotoxicity rating (0-100) ([3]; 500 g al/ha): 10 | CASOB phytotoxicity rating (0-100) ([4]; 500 g al/ha): 0 | ABUTH phytotoxicity rating (0-100) ([5]; 500 g al/ha): 70 | SETVI phytotoxicity rating (0-100) ([6]; 500 g al/ha): 30 | CHEAL phytotoxicity rating (0-100) ([7]; 500 g al/ha): 90 | ECHCG phytotoxicity rating (0-100) ([8]; 500 g al/ha): 30 | IPOHE phytotoxicity rating (0-100) ([9]; 500 g al/ha): 75 | phytotoxicity rating SORHA ([10]; 500 g ai/ha): 30 | phytotoxicity rating AMARE ([11]; 500 g ai/ha): 100 | phytotoxicity rating AMBEL ([12]; 500 g ai/ha): 20 | phytotoxicity rating DIGSA ([13]; 500 g ai/ha): 20 | phytotoxicity rating CASOB ([14]; 500 g ai/ha): 0 | phytotoxicity rating ABUTH ([15]; 500 g ai/ha): 10 | phytotoxicity rating SETVI ([16]; 500 g ai/ha): 100 | phytotoxicity rating CHEAL ([17]; 500 g ai/ha): 60 | phytotoxicity rating ECHCG ([18]; 500 g ai/ha): 0 | phytotoxicity rating IPOHE ([19]; 500 g ai/ha): 60 | CORN crop damage rating (0-100) ([20]; 500 g al/ha): 20 | RICE crop damage rating (0-100) ([21]; 500 g al/ha): 40 | crop damage rating CORN ([22]; 500 g ai/ha): 0 | crop damage rating RICE ([23]; 500 g ai/ha): 0 | AMBEL phytotoxicity rating (0-100) ([24]; 500 g al/ha): 25 | crop damage rating SOY ([25]; 500 g ai/ha): 15 | SOY crop damage rating (0-100) ([26]; 500 g al/ha): 35

Cn1c(C(F)(F)F)nc(-c2cc(Oc3ncccn3)c(Cl)cc2F)c1Cl [Compound 2-3]
SORHA phytotoxicity rating (0-100) ([1]; 63 g al/ha): 80 | SORHA phytotoxicity rating (0-100) ([1]; 500 g al/ha): 95 | AMARE phytotoxicity rating (0-100) ([2]; 63 g al/ha): 100 | AMARE phytotoxicity rating (0-100) ([2]; 500 g al/ha): 100 | DIGSA phytotoxicity rating (0-100) ([3]; 63 g al/ha): 0 | DIGSA phytotoxicity rating (0-100) ([3]; 500 g al/ha): 80 | CASOB phytotoxicity rating (0-100) ([4]; 63 g al/ha): 30 | CASOB phytotoxicity rating (0-100) ([4]; 500 g al/ha): 70 | ABUTH phytotoxicity rating (0-100) ([5]; 63 g al/ha): 95 | ABUTH phytotoxicity rating (0-100) ([5]; 500 g al/ha): 100 | SETVI phytotoxicity rating (0-100) ([6]; 63 g al/ha): 100 | SETVI phytotoxicity rating (0-100) ([6]; 500 g al/ha): 100 | CHEAL phytotoxicity rating (0-100) ([7]; 63 g al/ha): 90 | CHEAL phytotoxicity rating (0-100) ([7]; 500 g al/ha): 100 | ECHCG phytotoxicity rating (0-100) ([8]; 63 g al/ha): 30 | ECHCG phytotoxicity rating (0-100) ([8]; 500 g al/ha): 95 | IPOHE phytotoxicity rating (0-100) ([9]; 63 g al/ha): 100 | IPOHE phytotoxicity rating (0-100) ([9]; 500 g al/ha): 100 | phytotoxicity rating SORHA ([10]; 125 g ai/ha): 100 | phytotoxicity rating SORHA ([10]; 500 g ai/ha): 100 | phytotoxicity rating AMARE ([11]; 125 g ai/ha): 100 | phytotoxicity rating AMARE ([11]; 500 g ai/ha): 100 | phytotoxicity rating AMBEL ([12]; 125 g ai/ha): 35 | phytotoxicity rating AMBEL ([12]; 500 g ai/ha): 90 | phytotoxicity rating DIGSA ([13]; 125 g ai/ha): 100 | phytotoxicity rating DIGSA ([13]; 500 g ai/ha): 100 | phytotoxicity rating CASOB ([14]; 125 g ai/ha): 30 | phytotoxicity rating CASOB ([14]; 500 g ai/ha): 100 | phytotoxicity rating ABUTH ([15]; 125 g ai/ha): 100 | phytotoxicity rating ABUTH ([15]; 500 g ai/ha): 100 | phytotoxicity rating SETVI ([16]; 125 g ai/ha): 95 | phytotoxicity rating SETVI ([16]; 500 g ai/ha): 100 | phytotoxicity rating CHEAL ([17]; 125 g ai/ha): 100 | phytotoxicity rating CHEAL ([17]; 500 g ai/ha): 100 | phytotoxicity rating ECHCG ([18]; 125 g ai/ha): 80 | phytotoxicity rating ECHCG ([18]; 500 g ai/ha): 100 | phytotoxicity rating IPOHE ([19]; 125 g ai/ha): 20 | phytotoxicity rating IPOHE ([19]; 500 g ai/ha): 100 | CORN crop damage rating (0-100) ([20]; 63 g al/ha): 30 | CORN crop damage rating (0-100) ([20]; 500 g al/ha): 80 | RICE crop damage rating (0-100) ([21]; 63 g al/ha): 40 | RICE crop damage rating (0-100) ([21]; 500 g al/ha): 90 | crop damage rating CORN ([22]; 125 g ai/ha): 25 | crop damage rating CORN ([22]; 500 g ai/ha): 35 | crop damage rating RICE ([23]; 125 g ai/ha): 30 | crop damage rating RICE ([23]; 500 g ai/ha): 55 | AMBEL phytotoxicity rating (0-100) ([24]; 63 g al/ha): 30 | AMBEL phytotoxicity rating (0-100) ([24]; 500 g al/ha): 60 | crop damage rating SOY ([25]; 125 g ai/ha): 50 | crop damage rating SOY ([25]; 500 g ai/ha): 25 | SOY crop damage rating (0-100) ([26]; 63 g al/ha): 90 | SOY crop damage rating (0-100) ([26]; 500 g al/ha): 90
